According to US20020115689A1, “Combination therapy for treating neurodegenerative disease” (priority 1999, published 2002):

The compounds below were run on COX-1 and COX-2 (assay: human whole blood assay (Chan, et al., JPET 290:551-560, 1999) for COX-1 and COX-2 inhibition). Conditions: approximate COX-2 selectivity ratio = IC50 for inhibition of COX-1 divided by IC50 for inhibition of COX-2, human whole blood assay.
Type: cell-based
Source text: The ability of a compound to inhibit COX-1 and/or COX-2 may be characterized by reference to a wide variety of assays. […] Moreover, for purposes of this patent application a COX-2 selectivity ratio is defined by the IC50 for the inhibition of COX-1 divided by the IC50 for the inhibition of COX-2 as measured by the Chan, et al., human whole blood assay.

Row | Compound | COX-1/COX-2 ratio of the IC50
1 | Cc1ccc(-c2cc(C(F)(F)F)nn2-c2ccc(S(N)(=O)=O)cc2)cc1 [Celecoxib] | 6.5
2 | Cc1ccc(-c2ncc(Cl)cc2-c2ccc(S(C)(=O)=O)cc2)cn1 [Compound 13, 5-chloro-3-(4-(methylsulfonyl)phenyl)-2-(2-methyl-5-pyridinyl)pyridine] | 80
3 | COc1ccc2c(c1)c(CC(=O)O)c(C)n2C(=O)c1ccc(Cl)cc1 [Indomethacin] | 0.4
4 | Cc1cnc(NC(=O)C2=C(O)c3ccccc3S(=O)(=O)N2C)s1 [Meloxicam] | 2.
5 | CCC(=O)NS(=O)(=O)c1ccc(-c2c(-c3ccccc3)noc2C)cc1 [Pericoxib, N-[[4-(5-methyl-3-phenylisoxazol-4-yl)phenyl]sulfonyl]propanamide] | >100
6 | CS(=O)(=O)c1ccc(C2=C(c3ccccc3)C(=O)OC2)cc1 [Rofecoxib, 3-phenyl-4-(4-(methylsulfonyl)phenyl)-2-(5H)-furanone] | 35.
